Numbers after ± are expanded uncertainties.
Experiments:
[1] = Liquid; for mass density: 298.15 K, 101.33 kPa
[2] = refractive index (Na D-line) (dimensionless); details: 298.15 K; 101.33 kPa; Liquid; Standard Abbe refractometry

mass density [1] [kg/m3]	vapor or sublimation pressure ([1]; 351.46 K) [kPa]	refractive index [2]	vapor or sublimation pressure ([1]; 418.69 K) [kPa]	Compound	vapor or sublimation pressure ([1]; 352.68 K) [kPa]
786.47 ± 0.5	101.3 ± 0.2	1.3594 ± 0.0005		CCO [ethanol]	
870.88 ± 0.48		1.3992 ± 0.0005	101.3 ± 0.3	CCCCOC(=O)CC [butyl propanoate]	
780.75 ± 0.24		1.3754 ± 0.0005		CC(C)O [propan-2-ol]	

Compound	mass density [1] [kg/m3]	vapor or sublimation pressure ([1]; 351.46 K) [kPa]	refractive index [2]	vapor or sublimation pressure ([1]; 418.69 K) [kPa]	vapor or sublimation pressure ([1]; 352.68 K) [kPa]
CCC(C)=O [butanone]	799.62 ± 0.23		1.3761 ± 0.0005		101.3 ± 0.2

From the NIST ThermoML archive (doi:10.1021/je900470r)
